Patent US20260085067A1, “CYCLIC SULFONAMIDE RIBONUCLEOTIDE REDUCTASE (RNR) INHIBITORS AND USES THEREOF” (Boundless Bio, Inc., priority 2022, published 2026)

Experiments:
[1] = target: T1, RNR (RNR1:RNR2 1:1) (Homo sapiens, UniProt P23921); assay: RNR enzyme activity, rapid-fire mass spectrometry (RF/MS) assay; assay type: biochemical; conditions: [RNR] 50 nM, 1:1 RNR1:RNR2; CDP 5 μM; ATP 1 mM; 37° C., 45 min; compounds screened up to 50 μM
T1 sequence (P23921 1-792): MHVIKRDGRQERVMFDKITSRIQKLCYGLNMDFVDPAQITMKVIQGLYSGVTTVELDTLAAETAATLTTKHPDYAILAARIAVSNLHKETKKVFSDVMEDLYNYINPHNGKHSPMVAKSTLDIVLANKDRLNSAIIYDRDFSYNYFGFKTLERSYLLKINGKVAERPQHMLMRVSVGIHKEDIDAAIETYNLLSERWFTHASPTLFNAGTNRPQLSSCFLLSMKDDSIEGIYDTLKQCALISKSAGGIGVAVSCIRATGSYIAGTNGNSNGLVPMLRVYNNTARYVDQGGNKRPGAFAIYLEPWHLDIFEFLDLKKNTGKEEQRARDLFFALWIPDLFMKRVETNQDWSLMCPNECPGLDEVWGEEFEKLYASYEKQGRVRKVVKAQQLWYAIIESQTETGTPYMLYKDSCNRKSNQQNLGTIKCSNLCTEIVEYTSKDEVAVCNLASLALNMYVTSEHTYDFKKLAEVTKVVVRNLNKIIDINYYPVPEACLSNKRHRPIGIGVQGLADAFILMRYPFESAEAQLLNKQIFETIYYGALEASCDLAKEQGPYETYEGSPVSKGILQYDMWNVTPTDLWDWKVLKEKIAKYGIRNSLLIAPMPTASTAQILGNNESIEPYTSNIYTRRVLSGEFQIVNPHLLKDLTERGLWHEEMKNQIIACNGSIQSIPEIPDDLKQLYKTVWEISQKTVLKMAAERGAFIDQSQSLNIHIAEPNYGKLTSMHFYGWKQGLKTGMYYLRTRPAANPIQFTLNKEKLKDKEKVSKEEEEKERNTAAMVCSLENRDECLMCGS
Experimental: A rapid-fire mass spectrometry (RF/MS) assay was used to assess RNR enzyme activity using a 384 well plate and a robotic platform.
The plate layout included two validated reference compounds (Triapine (3-AP) and Hydroxyurea (HU)): • A dose response in duplicate; top concentration: 5 μM (3-AP) and 250 μM (HU), semi-log dilutions. • Spike wells in triplicate randomly spotted at four concentrations: • 250 μM, 100 μM, 30 μM and 2 μM for HU • 5 μM, 2 μM, 0.6 μM and 0.04 μM for 3-AP
First, the multidrop pipes were saturated for 30 minutes with enzymatic solution. Then 30 μL of Stop solution was distributed in column 24. Next, 15 μL of enzyme was distributed in column 1 to 24. Next, a pre-incubation step of 15 minutes at room temperature occurred, followed by distribution of 15 μL of substrate solution (column 1 to 24). Next, the plate was incubated for 45 minutes at 37° C. 30 μL of Stop solution was then distributed to columns 1 to 23.
The final parameters for the enzyme reactions were: • Incubation: 37° C., 45 min • [CDP]: 5 μM; [ATP]: 1 mM; [NADPH]: No • [RNR]final: 50 nM with 1:1 (RNR1:RNR2) ratio • Final volume: 30 μL • Stop solution: 6% HCOOH in water

[2] = tested on: pCHK1 (S345) in Colo320 DM cells; assay: Alphalisa assay, detection of pCHK1 (S345) in Colo320 DM cells; assay type: cell-based, human; conditions: compound overnight (approximately 16 hours)
Experimental: Colo320 DM cells (ATCC #CCL-220, derived from human colorectal adenocarcinoma, Dukes' type C) were seeded on a […], cell culture treated assay plate at a density of 50,000 cells/well in 200 μL of RPMI-1640 media supplemented with 10% Fetal Bovine Serum and incubated at 37° C. overnight. The following day, test compound dilutions were added directly to the plated cells by a Tecan digital dispenser to a final DMSO concentration of <0.5%. and incubated at 37° C. overnight (approximately 16 hours). The following day all cell culture media was removed from the cells. 75 μL of 1×AlphaLisa lysis buffer was added to each well and plates were agitated on a shaker for 30 minutes at room temperature. The lysis of cells and detection of pCHK1 (S345) were performed with reagents contained within the AlphaLisa Sure Fire assay kit (Perkin Elmer #ALSU-PCHK1-A) according to the manufacturer's instructions. 10 μL of each lysate was then transferred to a white, 384-well assay plate (Perkin Elmer #6008280). 5 μL of Acceptor mix was then added to each well of lysate in the white, 384-well assay plate and incubated in the dark at room temperature for 60 minutes. 5 μL of Donor mix was then added to each well of the white, 384-well assay plate in subdued light and incubated at room temperature for 60 minutes. Plates were read on an Alpha Technology-compatible plate reader using standard AlphaLisa settings.

Row | Structure (SMILES) | IC50 [1] | IC50 ([2]; Homo sapiens, COLO 320DM) | IC50 [2]
1 | Cc1ccc(F)c([C@H](C)[C@H](c2n[nH]c(=O)o2)N2CN(CC(O)CO)c3cc(Cl)ccc3S2(=O)=O)c1C (mixture of isomers) [Example 85, 5-((1R,2S)-1-(6-chloro-4-(2,3-dihydroxypropyl)-1,1-dioxido-3,4-dihydro-2H-benzo[e][1,2,4]thiadiazin-2-yl)-2-(6-fluoro-2,3-dimethylphenyl)propyl)-1,3,4-oxadiazol-2 (3H)-one] | < 0.02 µM | 1 to 5 µM | –
2 | Cc1ccc(F)c([C@@H](C)[C@@H](c2n[nH]c(=O)o2)N2CCOc3c(ccc(Cl)c3C(C)O)S2(=O)=O)c1C (single isomer, unassigned) [Example 28] | 1 to 10 µM | > 50 µM | –
3 | Cc1ccc(F)c([C@@H](C)[C@@H](c2n[nH]c(=O)o2)N2CCOc3c(ccc(Cl)c3C(C)O)S2(=O)=O)c1C (single isomer, unassigned) [Example 29] | 10 to 100 µM | – | > 50 µM
4 | Cc1ccc(F)c([C@@H](C)[C@@H](c2n[nH]c(=O)o2)N2C(C)N(C)c3cc(Cl)ccc3S2(=O)=O)c1C (stereo partly drawn) [Example 11, 5-((1S,2R)-1-(6-chloro-3,4-dimethyl-1,1-dioxido-3,4-dihydro-2H-benzo[e][1,2,4]thiadiazin-2-yl)-2-(6-fluoro-2,3-dimethylphenyl)propyl)-1,3,4-oxadiazol-2 (3H)-one] | – | 10 to 50 µM | –
5 | Cc1ccc(F)c([C@@H](C)[C@@H](c2n[nH]c(=O)o2)N2COc3c(ccc(Cl)c3C)S2(=O)=O)c1C [Example 31, 5-((1S,2R)-1-(6-chloro-5-methyl-1,1-dioxidobenzo[e][1,4,3]oxathiazin-2 (3H)-yl)-2-(6-fluoro-2,3-dimethylphenyl)propyl)-1,3,4-oxadiazol-2 (3H)-one] | – | 1 to 5 µM | –
6 | Cc1ccc(F)c([C@@H](C)[C@@H](c2n[nH]c(=O)o2)N2CN(CC(C)(C)O)c3cc(Cl)ccc3S2(=O)=O)c1C [Example 91, 5-((1S,2R)-1-(6-chloro-4-(2-hydroxy-2-methylpropyl)-1,1-dioxido-3,4-dihydro-2H-benzo[e][1,2,4]thiadiazin-2-yl)-2-(6-fluoro-2,3-dimethylphenyl)propyl)-1,3,4-oxadiazol-2 (3H)-one] | – | ≤ 1 µM | –
7 | CC(=O)c1cc(Cl)cc2c1S(=O)(=O)N([C@H](c1n[nH]c(=O)o1)[C@@H](C)c1c(F)ccc(C)c1C)CN2C1CC1 [Example 94, 5-((1S,2S)-1-(8-acetyl-6-chloro-4-cyclopropyl-1,1-dioxido-3,4-dihydro-2H-benzo[e][1,2,4]thiadiazin-2-yl)-2-(6-fluoro-2,3-dimethylphenyl)propyl)-1,3,4-oxadiazol-2 (3H)-one] | – | 1 to 5 µM | –
8 | Cc1ccc(F)c([C@@H](C)[C@@H](c2n[nH]c(=O)o2)N2CN(C3CN(CC(F)F)C3)c3cc(Cl)ccc3S2(=O)=O)c1C [Example 107, 5-((1S,2R)-1-(6-chloro-4-(1-(2,2-difluoroethyl)azetidin-3-yl)-1,1-dioxido-3,4-dihydro-2H-benzo[e][1,2,4]thiadiazin-2-yl)-2-(6-fluoro-2,3-dimethylphenyl)propyl)-1,3,4-oxadiazol-2 (3H)-one] | – | ≤ 1 µM | –
9 | Cc1ccc(F)c([C@@H](C)[C@@H](c2n[nH]c(=O)o2)N2CN(CCF)c3cc(Cl)ccc3S2(=O)=O)c1C [Example 108, 5-((1S,2R)-1-(6-chloro-4-(2-fluoroethyl)-1,1-dioxido-3,4-dihydro-2H-benzo[e][1,2,4]thiadiazin-2-yl)-2-(6-fluoro-2,3-dimethylphenyl)propyl)-1,3,4-oxadiazol-2 (3H)-one] | – | ≤ 1 µM | –
10 | CC(=O)c1cc(Cl)cc2c1S(=O)(=O)N([C@H](c1n[nH]c(=O)o1)[C@H](C)c1c(F)ccc(C)c1C)CN2 [Example 109, 5-((1S,2R)-1-(8-acetyl-6-chloro-1,1-dioxido-3,4-dihydro-2H-benzo[e][1,2,4]thiadiazin-2-yl)-2-(6-fluoro-2,3-dimethylphenyl)propyl)-1,3,4-oxadiazol-2 (3H)-one] | – | ≤ 1 µM | –
11 | CC(=O)c1cc(Cl)cc2c1S(=O)(=O)N([C@H](c1n[nH]c(=O)o1)[C@H](C)c1c(F)ccc(C)c1C)CN2CCO [Example 110, 5-((1S,2R)-1-(8-acetyl-6-chloro-4-(2-hydroxyethyl)-1,1-dioxido-3,4-dihydro-2H-benzo[e][1,2,4]thiadiazin-2-yl)-2-(6-fluoro-2,3-dimethylphenyl)propyl)-1,3,4-oxadiazol-2 (3H)-one] | – | ≤ 1 µM | –
12 | Cc1ccc(F)c([C@@H](C)[C@@H](c2n[nH]c(=O)o2)N2CN([C@H]3C[C@@H](N(C)C)C3)c3cc(Cl)ccc3S2(=O)=O)c1C [Example 111, 5-((1S,2R)-1-(6-chloro-4-((1s,3R)-3-(dimethylamino)cyclobutyl)-1,1-dioxido-3,4-dihydro-2H-benzo[e][1,2,4]thiadiazin-2-yl)-2-(6-fluoro-2,3-dimethylphenyl)propyl)-1,3,4-oxadiazol-2 (3H)-one] | – | ≤ 1 µM | –
13 | Cc1ccc(F)c([C@@H](C)[C@@H](c2n[nH]c(=O)o2)N2CN([C@H]3C[C@@H](O)C3)c3cc(Cl)ccc3S2(=O)=O)c1C [Example 112, 5-((1S,2R)-1-(6-chloro-4-((1s,3R)-3-hydroxycyclobutyl)-1,1-dioxido-3,4-dihydro-2H-benzo[e][1,2,4]thiadiazin-2-yl)-2-(6-fluoro-2,3-dimethylphenyl)propyl)-1,3,4-oxadiazol-2 (3H)-one] | – | ≤ 1 µM | –
14 | Cc1ccc(F)c([C@@H](C)[C@@H](c2n[nH]c(=O)o2)N2CN(CCN)c3cc(Cl)ccc3S2(=O)=O)c1C [Example 113, 5-((1S,2R)-1-(4-(2-aminoethyl)-6-chloro-1,1-dioxido-3,4-dihydro-2H-benzo[e][1,2,4]thiadiazin-2-yl)-2-(6-fluoro-2,3-dimethylphenyl)propyl)-1,3,4-oxadiazol-2 (3H)-one] | – | 5 to 10 µM | –
15 | Cc1ccc(F)c([C@@H](C)[C@@H](c2n[nH]c(=O)o2)N2CN(OCc3ccccc3)c3cc(Cl)ccc3S2(=O)=O)c1C [Example 114, 5-((1S,2R)-1-(4-(benzyloxy)-6-chloro-1,1-dioxido-3,4-dihydro-2H-benzo[e][1,2,4]thiadiazin-2-yl)-2-(6-fluoro-2,3-dimethylphenyl)propyl)-1,3,4-oxadiazol-2 (3H)-one] | – | 5 to 10 µM | –
16 | CNCCN1CN([C@H](c2n[nH]c(=O)o2)[C@H](C)c2c(F)ccc(C)c2C)S(=O)(=O)c2ccc(Cl)cc21 [Example 115, 5-((1S,2R)-1-(6-chloro-4-(2-(methylamino)ethyl)-1,1-dioxido-3,4-dihydro-2H-benzo[e][1,2,4]thiadiazin-2-yl)-2-(6-fluoro-2,3-dimethylphenyl)propyl)-1,3,4-oxadiazol-2 (3H)-one] | – | 5 to 10 µM | –
17 | CC(=O)c1cc(Cl)cc2c1S(=O)(=O)N([C@H](c1n[nH]c(=O)o1)[C@H](C)c1c(F)ccc(C)c1C)CC(=O)N2 [Example 119, 5-((1S,2R)-1-(9-acetyl-7-chloro-1,1-dioxido-4-oxo-4,5-dihydrobenzo[f][1,2,5]thiadiazepin-2 (3H)-yl)-2-(6-fluoro-2,3-dimethylphenyl)propyl)-1,3,4-oxadiazol-2 (3H)-one] | – | 5 to 10 µM | –
